This note sets out measurements from ChEMBL document CHEMBL6083253, “Chemical synthesis and enzymatic late-stage diversification of novel pantothenate analogues with antiplasmodial activity” (Eur J Med Chem, 2024).

For series [1], the system named is Plasmodium falciparum. Briefly: Antiplasmodial activity against Plasmodium falciparum infected in human Erythrocyte measured after 96 hrs in presence of chloroquine and 1 uM of pantothenate by SYBR green fluorescence dye based microplate reader analysis. Format: functional, organism-based.
Series [2] deals with Plasmodium falciparum. Briefly: Antiplasmodial activity against intraerythrocytic stage of Plasmodium falciparum 3D7 assessed as inhibition of parasite proliferation in presence of pantetheinase. Format: functional, organism-based.
The nature of series [3]: Cytotoxicity against HFF cells assessed as inhibition of cell proliferation at 200 uM incubated for 96 hrs in presence of 16.8 uM of pantothenate by IncuCyte live-cell analysis. Format: toxicity, cell-based. The conditions noted are these: human.
Series [4] has as its system Plasmodium falciparum. Briefly: Antiplasmodial activity against Plasmodium falciparum infected in human Erythrocyte measured after 96 hrs in presence of chloroquine and 100 uM of pantothenate by SYBR green fluorescence dye based microplate reader analysis. Format: functional, organism-based.
For series [5], the system named is Priestia megaterium. As to the kind of experiment: Substrate activity at full length C-terminal his-tagged Bacillus megaterium […] BM3 A82F/F87V double mutant preincubated for 5 min in presence of NADP+ followed by compound addition by LC-MS analysis.
For series [6], the system named is Priestia megaterium. Briefly: Substrate activity at full length C-terminal his-tagged wild type Bacillus megaterium […] BM3 preincubated for 5 min in presence of NADP+ followed by compound addition by LC-MS analysis.
For series [7], the system named is Priestia megaterium. As to the kind of experiment: Substrate activity at full length C-terminal his-tagged Bacillus megaterium […] BM3 A82F/F87V double mutant assessed as conversion rate by UV-HPLC analysis.
The test system of series [8] is Priestia megaterium. Briefly: Substrate activity at wild type full length C-terminal his-tagged Bacillus megaterium […] BM3 assessed as conversion rate by UV-HPLC analysis.
The nature of series [9]: Binding affinity to full length C-terminal his-tagged Bacillus megaterium […] BM3 A82F/F87V double mutant assessed as dissociation constant by Michaelis-Menten equation based analysis. Also on record: species or system Priestia megaterium.
In series [10] the test system is Plasmodium falciparum. As to the kind of experiment: Antiplasmodial activity against intraerythrocytic stage of Plasmodium falciparum 3D7 assessed as inhibition of parasite proliferation. Format: functional, organism-based.
A short description of series [11]: Cytotoxicity against HFF cells assessed as inhibition of cell proliferation at 10 uM incubated for 96 hrs by IncuCyte live-cell analysis. Format: toxicity, cell-based. To be noted: human.
Series [12] is described as follows: Binding affinity to full length C-terminal his-tagged Bacillus megaterium […] BM3 A82F/F87V double mutant assessed as dissociation constant by Morrison equation based analysis. Set-up: species or system Priestia megaterium.

Activity calls are given as the source filed them. The rule behind the calls is not given here.

`CC(C)C(O)c1cc(CNC(=O)[C@H](O)C(C)(C)CO)no1` (some centres undefined): in the series with Plasmodium falciparum [1], the IC50 was 80 µM.
`CCCCCn1cc(CNC(=O)[C@H](O)C(C)(C)CO)nn1`: the IC50 in the series on Plasmodium falciparum [2] worked out at 0.056 µM.
Regarding `CC(C)C(O)CCc1cc(CNC(=O)[C@H](O)C(C)(C)CO)no1` (some centres undefined), the inhibition at 96 h, 200 µM in series [3] was determined as 101%. The results for the IC50 with Plasmodium falciparum [4] and in the series with Plasmodium falciparum [1] were > 50 µM and 3.9 µM, respectively.
Regarding `CC(C)(C)Cc1cc(CNC(=O)[C@H](O)C(C)(C)CO)no1`, in series [3], the inhibition at 96 h, 200 µM amounted to 102%. Further, in the series on Priestia megaterium [5], the result was inactive. Besides, the IC50 in the series with Plasmodium falciparum [4] was > 50 µM; in the series on Plasmodium falciparum [1], 4 µM. Further, the result in the series with Priestia megaterium [6] was Active.
Regarding `CCCCCc1nnc(CNC(=O)[C@H](O)C(C)(C)CO)o1`, the outcome in the series with Priestia megaterium [5] and in the series on Priestia megaterium [6] was inactive.
On to `CCCCCc1noc(CNC(=O)[C@H](O)C(C)(C)CO)n1`, for which the Activity in the series on Priestia megaterium [7] turned out to be 32.9%. Further, the outcome in the series with Priestia megaterium [5] and in the series on Priestia megaterium [6] was Active.
For the compound `CC(C)CCc1cc(CNC(=O)[C@H](O)C(C)(C)CO)no1`, the inhibition at 96 h, 200 µM in series [3] is 100%. The result in the series with Priestia megaterium [5] and in the series with Priestia megaterium [6] was Active. Further, the IC50 in the series with Plasmodium falciparum [4] is > 3.1 µM; in the series on Plasmodium falciparum [1] it was 0.22 µM. Besides, in the series with Priestia megaterium [8], the Activity is 85.6%.
As for `CCCCCc1nnc(CNC(=O)[C@H](O)C(C)(C)CO)[nH]1`, the result in the series with Priestia megaterium [5] and with Priestia megaterium [6] was inactive.
Take `CC(C)(O)CCCc1cc(CNC(=O)[C@H](O)C(C)(C)CO)no1`: the IC50 in the series with Plasmodium falciparum [1] worked out at 55 µM.
For the compound `CCCCCc1cc(CNC(=O)[C@H](O)C(C)(C)CO)no1`, the IC50 in the series on Plasmodium falciparum [2] was 0.16 µM.
Take `CC(C)(CO)[C@@H](O)C(=O)NCc1cn(CCCc2ccccc2)nn1`: in the series on Priestia megaterium [7], the Activity stood at 32.3%. The outcome in the series on Priestia megaterium [5] and in the series with Priestia megaterium [6] was Active. In series [9], the Kd came out at 10 µM. The IC50 worked out at 16 µM with Plasmodium falciparum [1] and 25 µM in the series on Plasmodium falciparum [10].
Take `C[C@@H]1C[C@@H]([C@H](O)CC2CC(=O)NC(=O)C2)C(=O)[C@@H](C)C1` [CYCLOHEXIMIDE]: in series [11], the inhibition at 96 h, 10 µM was 100%.
On to `CCCCCCn1cc(CNC(=O)[C@H](O)C(C)(C)CO)nn1`, for which the IC50 in the series with Plasmodium falciparum [2] came to 0.055 µM.
On to `CCC(C)c1cc(CNC(=O)[C@H](O)C(C)(C)CO)no1` (some centres undefined), for which the outcome with Priestia megaterium [5] and in the series with Priestia megaterium [6] was inactive. Further, the concentration for half-maximal inhibition (IC50) in the series with Plasmodium falciparum [1] was determined as 10 µM.
Regarding `CC(C)CCCc1cc(CNC(=O)[C@H](O)C(C)(C)CO)no1`, the inhibition at 96 h, 200 µM in [3] worked out at 102%. The outcome in the series with Priestia megaterium [7], in the series with Priestia megaterium [5] and in the series with Priestia megaterium [6] was Active. Besides, the Kd in series [12] is 3.7 µM. For the same compound, the results for the half-maximal inhibitory concentration (IC50) in the series with Plasmodium falciparum [4] and with Plasmodium falciparum [1] were > 3.1 µM and 0.35 µM, respectively.
Take `CCCCCNC(=O)CCNC(=O)[C@H](O)C(C)(C)CO`: the result in the series with Priestia megaterium [5] and in the series on Priestia megaterium [6] was inactive.
In the case of `CC(C)(O)CCc1cc(CNC(=O)[C@H](O)C(C)(C)CO)no1`, the IC50 in the series on Plasmodium falciparum [1] was determined as 29 µM.
Turning to `CC(C)C(O)Cc1cc(CNC(=O)[C@H](O)C(C)(C)CO)no1` (some centres undefined), the half-maximal inhibitory concentration (IC50) in the series on Plasmodium falciparum [1] was 7.3 µM.
For the compound `CC(C)Cc1cc(CNC(=O)[C@H](O)C(C)(C)CO)no1`, the inhibition at 96 h, 200 µM in series [3] was found to be 100%. Moreover, the Activity in the series with Priestia megaterium [7] was 37.5%. Further, in [12], the Kd worked out at 3 µM. Moreover, the result in the series with Priestia megaterium [5] and in the series with Priestia megaterium [6] was Active. The IC50 with Plasmodium falciparum [4] is > 6.3 µM; in the series with Plasmodium falciparum [1] it was 0.47 µM.
As to `CCSCc1cc(CNC(=O)[C@H](O)C(C)(C)CO)no1`, the inhibition at 96 h, 200 µM in series [3] stood at 100%. The outcome with Priestia megaterium [7], with Priestia megaterium [5] and in the series with Priestia megaterium [6] was Active. In series [12], the Kd was determined as 0.9 µM. The results for the concentration for half-maximal inhibition (IC50) in the series on Plasmodium falciparum [4] and in the series on Plasmodium falciparum [1] were > 1.6 µM and 0.13 µM, respectively.
On to `CCCCc1cc(CNC(=O)[C@H](O)C(C)(C)CO)no1`, for which the IC50 in the series with Plasmodium falciparum [2] came out at 0.072 µM.
Consider `CC[S+]([O-])Cc1cc(CNC(=O)[C@H](O)C(C)(C)CO)no1` (some centres undefined), for which, in the series on Plasmodium falciparum [1], the IC50 was 153 µM.
Same read-out and setting: the value for `CC(C)(CO)[C@@H](O)C(=O)NCc1cn(CC(O)Cc2ccccc2)nn1` (some centres undefined) was > 200 µM.

One may read the IC50 as the concentration that gives 50% inhibition. The term inhibition denotes the change of the read-out against control, counted positive when it falls. By Kd is commonly meant the equilibrium constant for the complex coming apart.
